Laboratory results taken from patent publication US20240051970A1, “COMPOUNDS AND COMPOSITIONS FOR TREATING CONDITIONS ASSOCIATED WITH STING ACTIVITY” (IFM Due, Inc., priority 2020, published 2024).

Molecular target: T1, hSTING (Homo sapiens, UniProt Q86WV6, G230A/H232R/R293Q/R71H)
T1 construct: host or cells: THP1-Dual KO-IFNAR2 cells
Test: STING reporter assay (luciferase) in THP1-Dual KO-IFNAR2 cells activated with 2'3'cGAMP
Assay type: cell-based
Conditions: 15 μM 2'3'cGAMP, 24 h
Protocol: STING pathway activation by the compounds described herein was measured using THP1-Dual™ cells (KO-IFNAR2).
THP1-Dual™ KO-IFNAR2 Cells (obtained from invivogen) were maintained in RPMI, 10% FCS, 5 ml P/S, 2 mM L-glut, 10 mM Hepes, and 1 mM sodium pyruvate. Compounds were spotted in empty 384 well tissue culture plates (Greiner 781182) by Echo for a final concentration of 0.0017-100 μM. Cells were plated into the TC plates at 40 μL per well, 2×10E6 cells/mL. For activation with STING ligand, 2′3′cGAMP (MW 718.38, obtained from Invivogen), was prepared in Optimem media.
The following solutions were prepared for each 1×384 plate: • Solution A: 2 mL Optimem with one of the following stimuli: • 60 μL of 10 mM 2′3′cGAMP 4 150 μM stock • Solution B: 2 mL Optimem with 60 μL Lipofectamine 2000 4 Incubate 5 min at RT
2 mL of solution A and 2 ml Solution B was mixed and incubated for 20 min at room temperature (RT). 20 μL of transfection solution (A+B) was added on top of the plated cells, with a final 2′3′cGAMP concentration of 15 μM. The plates were then centrifuged immediately at 340 g for 1 minute, after which they were incubated at 37° C., 5% CO2, >98% humidity for 24 h. Luciferase reporter activity was then measured. EC50 values were calculated by using standard methods known in the art.
Luciferase reporter assay: 10 μL of supernatant from the assay was transferred to white 384-plate with flat bottom and squared wells. One pouch of QUANTI-Luc™ Plus was dissolved in 25 mL of water. 100 μL of QLC Stabilizer per 25 mL of QUANTI-Luc™ Plus solution was added. 50 μL of QUANTI-Luc™ Plus/QLC solution per well was then added. Luminescence was measured on a Platereader (e.g., Spectramax I3X (Molecular Devices GF3637001)).
Luciferase reporter activity was then measured. EC50 values were calculated by using standard methods known in the art.

T1 sequence (Q86WV6 whole entry R71H/G230A/H232R/R293Q): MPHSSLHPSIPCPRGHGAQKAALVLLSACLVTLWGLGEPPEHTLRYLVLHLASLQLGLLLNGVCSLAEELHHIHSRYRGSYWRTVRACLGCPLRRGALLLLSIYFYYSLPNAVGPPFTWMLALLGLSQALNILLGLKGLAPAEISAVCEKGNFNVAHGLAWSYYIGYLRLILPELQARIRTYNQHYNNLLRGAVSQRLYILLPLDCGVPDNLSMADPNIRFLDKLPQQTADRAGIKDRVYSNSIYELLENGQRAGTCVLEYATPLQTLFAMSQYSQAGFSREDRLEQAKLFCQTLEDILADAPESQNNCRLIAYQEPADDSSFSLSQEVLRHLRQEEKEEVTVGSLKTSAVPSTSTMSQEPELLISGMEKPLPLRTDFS

| SMILES | EC50 [nM] |
| --- | --- |
| FC(F)(F)CN1CCC(c2ccc3[nH]c(Nc4cc(Cl)c5cc[nH]c5c4)nc3c2)CC1 [Compound 153, N-(4-chloro-1H-indol-6-yl)-5-[1-(2,2,2-trifluoroethyl)piperidin-4-yl]-1H-1,3-benzodiazol-2-amine] | 200 to 1000 |
| Clc1cc(Nc2nc3cc(C4CCOC4)ccc3[nH]2)cc2[nH]ccc12 (stereo not shown) [Compound 154, N-(4-chloro-1H-indol-6-yl)-5-(oxolan-3-yl)-1H-1,3-benzodiazol-2-amine] | 200 to 1000 |
| CC(C)n1cc(-c2ccc3[nH]c(Nc4cc(Cl)c5cc[nH]c5c4)nc3c2)cn1 [Compound 155, N-(4-chloro-1H-indol-6-yl)-5-[1-(propan-2-yl)-1H-pyrazol-4-yl]-1H-1,3-benzodiazol-2-amine] | 200 to 1000 |
| Clc1cc(Nc2nc3cc(-c4cnn(CC5CC5)c4)ccc3[nH]2)cc2[nH]ccc12 [Compound 156, N-(4-chloro-1H-indol-6-yl)-5-[1-(cyclopropylmethyl)-1H-pyrazol-4-yl]-1H-1,3-benzodiazol-2-amine] | 200 to 1000 |
| COCCn1cc(-c2ccc3[nH]c(Nc4cc(Cl)c5cc[nH]c5c4)nc3c2)cn1 [Compound 158, N-(4-chloro-1H-indol-6-yl)-5-[1-(2-methoxyethyl)-1H-pyrazol-4-yl]-1H-1,3-benzodiazol-2-amine] | 200 to 1000 |
| Clc1cc(Nc2nc3cc(-c4cnn(C5CCOCC5)c4)ccc3[nH]2)cc2[nH]ccc12 [Compound 159, N-(4-chloro-1H-indol-6-yl)-5-[1-(oxan-4-yl)-1H-pyrazol-4-yl]-1H-1,3-benzodiazol-2-amine] | 200 to 1000 |
| CN1CCC(c2ccc3[nH]c(Nc4cc(Cl)c5cc[nH]c5c4)nc3c2)CC1 [Compound 160, N-(4-chloro-1H-indol-6-yl)-5-(1-methylpiperidin-4-yl)-1H-1,3-benzodiazol-2-amine] | 5000 to 100000 |
| Clc1cc(Nc2nc3cc(C4CCOCC4)ccc3[nH]2)cc2[nH]ccc12 [Compound 161, N-(4-chloro-1H-indol-6-yl)-5-(oxan-4-yl)-1H-1,3-benzodiazol-2-amine] | 200 to 1000 |
| CC(C)(C)OC(=O)N1CCC(c2ccc3[nH]c(Nc4cc(Cl)c5cc[nH]c5c4)nc3c2)CC1 [Compound 162, tert-butyl 4-{2-[(4-chloro-1H-indol-6-yl)amino]-1H-1,3-benzodiazol-5-yl}piperidine-1-carboxylate] | 200 to 1000 |
| FC(F)n1cc(-c2ccc3[nH]c(Nc4cc(Cl)c5cc[nH]c5c4)nc3c2)cn1 [Compound 163, N-(4-chloro-1H-indol-6-yl)-5-[1-(difluoromethyl)-1H-pyrazol-4-yl]-1H-1,3-benzodiazol-2-amine] | 200 to 1000 |
| Clc1cc(Nc2nc3cc(-c4cnn(-c5ccccc5)c4)ccc3[nH]2)cc2[nH]ccc12 [Compound 164, N-(4-chloro-1H-indol-6-yl)-5-(1-phenyl-1H-pyrazol-4-yl)-1H-1,3-benzodiazol-2-amine] | 200 to 1000 |
| CC(C)CCc1ccc2[nH]c(Nc3cc(Cl)c4cc[nH]c4c3)nc2c1 [Compound 165, N-(4-chloro-1H-indol-6-yl)-5-(3-methylbutyl)-1H-1,3-benzodiazol-2-amine] | 200 to 1000 |
| CC(C)(O)c1ccc(-c2ccc3[nH]c(Nc4cc(Cl)c5cc[nH]c5c4)nc3c2)cc1 [Compound 166, 2-(4-{2-[(4-chloro-1H-indol-6-yl)amino]-1H-1,3-benzodiazol-5-yl}phenyl)propan-2-ol] | 200 to 1000 |
| N#Cc1cncc(-c2ccc3[nH]c(Nc4cc(Cl)c5cc[nH]c5c4)nc3c2)c1 [Compound 167, 5-{2-[(4-chloro-1H-indol-6-yl)amino]-1H-1,3-benzodiazol-5-yl}pyridine-3-carbonitrile] | 200 to 1000 |
| Clc1cc(Nc2nc3cc(C4CCCCC4)ccc3[nH]2)cc2[nH]ccc12 [Compound 168, N-(4-chloro-1H-indol-6-yl)-5-cyclohexyl-1H-1,3-benzodiazol-2-amine] | 200 to 1000 |
| COCc1cccc(-c2ccc3[nH]c(Nc4cc(Cl)c5cc[nH]c5c4)nc3c2)c1 [Compound 169, N-(4-chloro-1H-indol-6-yl)-5-[3-(methoxymethyl)phenyl]-1H-1,3-benzodiazol-2-amine] | 200 to 1000 |
| FC(F)(F)Oc1ccc(-c2ccc3[nH]c(Nc4cc(Cl)c5cc[nH]c5c4)nc3c2)cc1 [Compound 170, N-(4-chloro-1H-indol-6-yl)-5-[4-(trifluoromethoxy)phenyl]-1H-1,3-benzodiazol-2-amine] | 200 to 1000 |
| CS(=O)(=O)N1CCC(c2ccc3[nH]c(Nc4cc(Cl)c5cc[nH]c5c4)nc3c2)CC1 [Compound 171, N-(4-chloro-1H-indol-6-yl)-5-(1-methanesulfonylpiperidin-4-yl)-1H-1,3-benzodiazol-2-amine] | 200 to 1000 |
| O=C(C1CC1)N1CCC(c2ccc3[nH]c(Nc4cc(Cl)c5cc[nH]c5c4)nc3c2)CC1 [Compound 172, N-(4-chloro-1H-indol-6-yl)-5-(1-cyclopropanecarbonylpiperidin-4-yl)-1H-1,3-benzodiazol-2-amine] | 200 to 1000 |
| CC(C)(O)CCc1ccc2[nH]c(Nc3cc(Cl)c4cc[nH]c4c3)nc2c1 [Compound 173, 4-{2-[(4-chloro-1H-indol-6-yl)amino]-1H-1,3-benzodiazol-5-yl}-2-methylbutan-2-ol] | 200 to 1000 |
| Fc1c[nH]c2cc(Nc3nc4cc(Cl)c(Cl)cc4[nH]3)ccc12 [Compound 174, 5,6-dichloro-N-(3-fluoro-1H-indol-6-yl)-1H-1,3-benzodiazol-2-amine] | 40 to 200 |
| Fc1c[nH]c2cc(Nc3nc4cc(C(F)(F)F)ccc4[nH]3)ccc12 [Compound 175, N-(3-fluoro-1H-indol-6-yl)-5-(trifluoromethyl)-1H-1,3-benzodiazol-2-amine] | 40 to 200 |
